Measured values taken from US20230278972A1, “SUBSTITUTED HALOALKYL SULFONANILIDE HERBICIDES” (FMC Corporation, priority 2020, published 2023).

Assays:
Format in all cases: in vivo
[1] = system: ragweed (common ragweed, Ambrosia artemisiifolia); experiment: Test A1 preemergence, ragweed
Procedure, shortened: (§1)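 Seeds were first planted into a blend of loam soil and sand and given a preemergence directed soil spray. In parallel, pots of the same soil were sown for postemergence application once plants reached 2 to 10 cm and the one- to two-leaf stage. Both used surfactant-containing non-phytotoxic solvent formulations.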

[2] = system: galium (catchweed bedstraw, Galium aparine); experiment: Test A1 postemergence, galium; conditions: Postemergence
Procedure, shortened: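 Pre: seeds in loam/sand blend, directed soil spray. Post: potted plants, same soil, 2–10 cm, 1–2 leaf stage. Chemicals in non-phytotoxic solvent + surfactant for both.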

[3] = system: goosegrass (Eleusine indica); experiment: Test A1 preemergence, goosegrass
Procedure, shortened: as §1

[4] = system: Pigweed, Palmer (palmer amaranth, palmer pigweed, Amaranthus palmeri); experiment: Test A1 preemergence, Pigweed, Palmer
Procedure, shortened: as §1

[5] = system: corn (Zea mays); experiment: Test A1 preemergence, corn
Procedure, shortened: as §1

[6] = system: ducksalad (Heteranthera limosa); experiment: Test B1 flooded paddy test, ducksalad; conditions: 250 g ai/ha, Flood, applied to paddy water, 2-leaf stage, visually evaluated after 10 to 14 days
Description: A dash (-) response means no test result.

[7] = system: ragweed (common ragweed, Ambrosia artemisiifolia); experiment: Test A1 postemergence, ragweed; conditions: Postemergence
Procedure, shortened: as §1

[8] = system: blackgrass (Alopecurus myosuroides); experiment: Test A1 preemergence, blackgrass
Procedure, shortened: as §1

[9] = system: Pigweed, Palmer (palmer amaranth, palmer pigweed, Amaranthus palmeri); experiment: Test A1 postemergence, Pigweed, Palmer; conditions: Postemergence
Procedure, shortened: as §1

[10] = 31 g ai/ha, 0 to 100 scale (0 no effect, 100 complete control)
[11] = 125 g ai/ha, 0 to 100 scale, 0 no effect, 100 complete control
[12] = 31 g ai/ha, 0 to 100 scale (0 no effect, 100 complete control), 10 days

SMILES	Plant response rating, Ragweed [1, 10]	Plant response rating, Ragweed [1, 11]	Plant response rating, Galium [2, 12]	Plant response rating, Galium ([2]; 125 g ai/ha, 0 to 100 scale)	Plant response rating, Goosegrass [3, 10]	Plant response rating, Goosegrass [3, 11]	Plant response rating, Pigweed, Palmer [4, 10]	Plant response rating, Pigweed, Palmer [4, 11]	Plant response rating, Corn [5, 10]	Plant response rating, Corn [5, 11]	Plant response rating, Ducksalad (0 to 100 scale, 0 is no effect, 100 is complete control) [6]	Plant response rating, Ragweed [7, 12]	Plant response rating, Ragweed ([7]; 125 g ai/ha, 0 to 100 scale)	Plant response rating, Blackgrass [8, 10]	Plant response rating, Blackgrass [8, 11]	Plant response rating, Pigweed, Palmer [9, 12]	Plant response rating, Pigweed, Palmer ([9]; 125 g ai/ha, 0 to 100 scale)
CCOC(=O)N(c1cc(C(=O)N2C[C@@H](C)O[C@@H](C)C2)c(C)c(C)c1C)S(=O)(=O)C(F)(F)F [Compound 332]	50	80	80	90	50	90	60	90	0	10	80	80	80	0	0	10	30
Cc1c(C(=O)N2CCCCC2)cc(NS(=O)(=O)C(F)(F)F)c(Cl)c1F [Compound 333]	0	70	70	90	80	80	90	100	0	0	70	0	80	0	0	40	60
COC1CCCN(C(=O)c2cc(NS(=O)(=O)C(F)(F)F)c(Cl)c(F)c2C)C1 (centres unmarked) [Compound 334]	0	50	60	60	70	90	20	70	0	0	60	0	50	10	10	10	50
Cc1c(NS(=O)(=O)C(F)(F)F)cc(C2=NOC3CCCC23)c(C)c1C (centres unmarked) [Compound 335]	20	90	50	80	30	70	100	100	0	60	70	50	80	0	0	20	30
COCC1CC(c2cc(N(COC(=O)C(C)(C)C)S(=O)(=O)C(F)(F)F)c(C)cc2C)=NO1 (centres unmarked) [Compound 338]	0	40	50	50	40	100	0	40	10	50	40	30	70	0	0	0	30
CCOC1CC(c2cc(N(COC(=O)C(C)(C)C)S(=O)(=O)C(F)(F)F)c(C)cc2C)=NO1 (centres unmarked) [Compound 339]	20	50	30	50	0	90	30	100	0	0	65	40	70	0	0	0	20
Cc1cc(C)c(C2=NOC3(C)CCCC23)cc1NS(=O)(=O)C(F)(F)F (centres unmarked) [Compound 340]	10	90	50	80	100	100	60	100	0	90	45	70	80	60	90	0	30
Cc1cc(C)c(N(COC(=O)C(C)(C)C)S(=O)(=O)C(F)(F)F)cc1C1=NOC2(C)CCCC12 (centres unmarked) [Compound 341]	0	0	50	80	30	100	0	20	0	0	45	60	80	0	30	0	20
CCC1ON=C(c2cc(NS(=O)(=O)C(F)(F)F)c(C)cc2C)C1CC (centres unmarked) [Compound 343]	10	60	70	100	90	100	40	90	10	60	45	20	80	60	90	0	60
CCC1ON=C(c2cc(N(COC(=O)C(C)(C)C)S(=O)(=O)C(F)(F)F)c(C)cc2C)C1CC (centres unmarked) [Compound 344]	0	0	70	100	20	90	50	80	10	10	90	30	60	0	30	20	50
